How the values were obtained:
[1] = tested on: subjects with fibromyalgia; experiment: Numeric Pain Rating Scale (NPRS) daily pain scores; format: in vivo, human
Experimental: As used herein, “NPRS” is Numeric Pain Rating Scale Score. Numeric pain rating scale is a unidimensional segmented numeric version of the visual analog scale. The NPRS score assessing average pain intensity in the past 24 hours are based on an 11-point numerical rating scale/Likert scale ranging from 0 to 10. Where 0 represents no pain and 10 is the worst pain imaginable. Individual one-time scores were collected at the Screening and Day 1 visits on the CRF in order to confirm eligibility status for the subjects. These CRF pain scores were not used in the analysis tables. Instead, the pain scores collected by eRT via phone data collection were used in the analysis tables. eRT collected a variable if the call was completed per the requirements. […] The daily pain scores were summarized using the mean and were calculated for the analysis visits at Baseline and Weeks 1-7. There needed to be at least 4 daily pain scores collected within a post-baseline analysis visit in order to calculate the mean pain score for that visit. Each mean analysis visit score took on values ranging from 0 to 10 and was rounded off by one number after the decimal point. No missing data imputations were used for these individual values or computed means. The actual values/means, changes from baseline, and changes from treatment periods at each analysis visit were summarized using descriptive statistics. Additionally, the treatment group comparisons were analyzed using the paired t-test and nonparametric Wilcoxon signed-rank test. All data collected and derived were presented in subject listings. The pain scores collected by eRT and the CRF were presented in separate subject listings.
The collection methods of the NPRS score assessing worst pain intensity in the past 24 hours were the same as the efficacy data for the NPRS score assessing average pain intensity in the past 24 hours and was analyzed using the same techniques. The worst pain score must be greater than or equal to the average pain score for each assessment. In the event a worst pain score was less than the average pain, both pain scores were removed from calculating the mean weekly analysis visit scores. These collected pain scores were presented in the subject listings with a note that they would be removed from the analysis tables.
The timeline of events in the study are depicted in FIG. 1A. The study included up to a 30 day screening period, to confirm the diagnosis, assess eligibility, and complete the baseline magnetic resonance imaging (MRI). This was a single-blind, exploratory, placebo-controlled pilot study in which eligible subjects received 2 weeks of daily oral (QD) placebo, 2 weeks of NYX-2925 20 mg PO daily (low dose), 2 weeks of NYX-2925 200 mg PO daily (high dose), followed by a 1 week follow-up period. An MRI was conducted during the screening period, during the last week of the placebo period, during the last week of the NYX-2925 20 mg administration period, and during the last week of the NYX-2925 200 mg administration period. Study visits occurred during screening, then at day one and weeks 1, 2, 3, 4, 5, 6, and 7. An optional MRI was completed at the end of the follow-up period for consenting subjects. Study participants and study staff responsible for interpreting MRI results were blinded to the study drug administration.

NMDAR = NMDAR modulation (description); conditions: low concentrations of endogenous agonist (glycine or D-serine), in the presence of glutamate
[2] = tested on: subjects with fibromyalgia; experiment: Patient Global Impression of Change (PGI-C); format: in vivo, human
Text: As used herein, the “PGI-C” is Patient Global Impression of Change. The PGI-C is a 7-point Likert scale that allows subjects to rate the change in the disease state from study initiation to specific time points during the study or at the end of the study. It provides the subject's impression of overall change.
The PGI-C data were collected and analyzed at visits Week 2, Week 4, Week 6, and Follow-up (Week 7). […] The actual values and changes from treatment periods at Week 4 and Week 6 were summarized using descriptive statistics. A frequency distribution was created for each analysis visit based on the collected categorical values. The analysis categorical values stated above were summarized by frequency distributions and p-values using McNemar's test.

[3] = tested on: subjects with fibromyalgia; experiment: QST: MAST pressure pain sensitivity at the thumbnail; format: in vivo, human
Text: The multi-modal automated sensory testing (MAST) system was used to measure localized pressure sensitivity at an asymptomatic, neutral body site, the thumbnail. The MAST system is a nonsignificant-risk investigational device that applies a computer-controlled mechanical stimulation at precisely controlled intensity levels and durations. The validity in the measurement of centrally-mediated pain sensitivity has been discussed extensively. The MAST system delivered an ascending series of computer-controlled, 5-second pressures at 20-second intervals (with 20% jitter) to the subject's thumbnail bed, beginning at 0.25 to 0.5 kg/cm^2 and increasing in steps of 0.25 to 0.50 kg/cm^2. Pain intensity was rated after each pressure on a 0 to 100 NRS. Testing was terminated when the first of 3 possible stop conditions were met: 1) subject reached her personal pain tolerance and requested to stop the test, 2) subject reported a pain intensity rating of >80, or 3) the maximum pressure of 10 kg/cm^2 was delivered. A regression model was used fit the stimulus-response data obtained from this procedure and interpolate Pain50, defined as the pressure intensity that evokes a moderate level of suprathreshold pressure pain (i.e., 50/100). Additional derived variables included: 1) Pressure pain threshold, defined as the first pressure in a series of at least 2 consecutive pressures that elicited a NRS pain rating >0; 2) slope of the stimulus-response function as a measure of the rate of pain increase; and 3) pressure pain tolerance, defined as the last pressure recorded in the stimulus response profile. These variables were used to determine the effect of drug and placebo treatments on pain sensitivity.
QST data were analyzed at the University of Michigan CPFRC. Dependent variables were the MAST derived outcomes (Pain50, pressure pain threshold, pain tolerance, and pain ratings at 2 kg/cm2), algometry-derived pressure pain thresholds (mean of three trials) at each anatomical site, average cuff intensity ratings (mean of ratings at all stimulus levels during the ascending or random sequences), and average visual task unpleasantness and brightness intensity ratings (mean of ratings at all stimulus levels). Practice data were not analyzed. Overall pain intensity and unpleasantness NRS scores as well as stimulus response curves for each test were assessed during post hoc analyses. Data points displaying measurement artefacts, including device malfunction or user error, were set to missing. Single subject QST variables were analyzed using paired t-tests and/or nonparametric Wilcoxon signed-rank tests in SPSS or R.

[4] = week six, after four weeks of NYX-2925, scale 0 to 10, n=19

CC(C)C(=O)N1CCC[C@]12CN([C@H](C(N)=O)[C@@H](C)O)C2=O [NYX-2925, (2S, 3R)-3-hydroxy-2-((R)-5-isobutyryl-1-oxo-2,5-diazaspiro[3.4]octan-2-yl)butanamide]
average daily pain, change from baseline ([1]; NYX-2925 20 mg): reductions from baseline
worse daily pain, change from baseline ([1]; NYX-2925 20 mg): reductions from baseline
NPRS average pain score, mean change ([1]; Week 2 (placebo) to Week 4 (NYX-2925 20 mg PO QD)): −0.10
NPRS average pain score, mean change ([1]; Week 2 (placebo) to Week 6 (NYX-2925 200 mg PO QD), p=0.0072): −0.66
NPRS worst pain score, mean change ([1]; Week 2 (placebo) to Week 6 (NYX-2925 200 mg), p=0.0360): −0.61
Average daily pain score, reduction from baseline [1, 4]: 1.1 point
Worst daily pain score, reduction from baseline [1, 4]: 1.0 point
activity at the NMDAR (NMDAR): partially activates the NMDAR
Patient Global Impression of Change ([2]; post hoc, improved including minimally improved, 20 mg and 200 mg versus placebo): a larger proportion of subjects had a reduction of severity
Patient Global Impression of Change ([2]; traditional definition of improved (very much improved, much improved)): little, if any, change in severity
MAST Pain50 threshold ([3]; NYX-2925 20 mg relative to baseline, p=0.079): marginal decrease in threshold
pain thresholds of the MAST test ([3]; NYX-2925 200 mg): not significantly altered
rating of pain unpleasantness evoked by MAST testing ([3]; NYX-2925 200 mg, baseline 50.00±24.24, p=0.038): 42.14±19.34
rating of overall pain intensity evoked by MAST testing ([3]; NYX-2925 200 mg, baseline 51.43±15.01, p=0.035): 44.76±12.19 NRS units

From patent US20210308101A1, “METHODS OF TREATING FIBROMYALGIA” (Aptinyx Inc., priority 2019, published 2021)
